According to patent publication US20240409527A1, “INHIBITORS OF ALPHA-5 BETA-1 INTEGRIN AND USES THEREOF” (The Regents of the University of California, priority 2022, published 2024):

Target: α5β1 integrin (Homo sapiens, UniProt P05556+P08648)
Assay: IC50 for the selected compounds (assay not described)

Chain of α5β1 integrin (P08648 42-894 limits assumed): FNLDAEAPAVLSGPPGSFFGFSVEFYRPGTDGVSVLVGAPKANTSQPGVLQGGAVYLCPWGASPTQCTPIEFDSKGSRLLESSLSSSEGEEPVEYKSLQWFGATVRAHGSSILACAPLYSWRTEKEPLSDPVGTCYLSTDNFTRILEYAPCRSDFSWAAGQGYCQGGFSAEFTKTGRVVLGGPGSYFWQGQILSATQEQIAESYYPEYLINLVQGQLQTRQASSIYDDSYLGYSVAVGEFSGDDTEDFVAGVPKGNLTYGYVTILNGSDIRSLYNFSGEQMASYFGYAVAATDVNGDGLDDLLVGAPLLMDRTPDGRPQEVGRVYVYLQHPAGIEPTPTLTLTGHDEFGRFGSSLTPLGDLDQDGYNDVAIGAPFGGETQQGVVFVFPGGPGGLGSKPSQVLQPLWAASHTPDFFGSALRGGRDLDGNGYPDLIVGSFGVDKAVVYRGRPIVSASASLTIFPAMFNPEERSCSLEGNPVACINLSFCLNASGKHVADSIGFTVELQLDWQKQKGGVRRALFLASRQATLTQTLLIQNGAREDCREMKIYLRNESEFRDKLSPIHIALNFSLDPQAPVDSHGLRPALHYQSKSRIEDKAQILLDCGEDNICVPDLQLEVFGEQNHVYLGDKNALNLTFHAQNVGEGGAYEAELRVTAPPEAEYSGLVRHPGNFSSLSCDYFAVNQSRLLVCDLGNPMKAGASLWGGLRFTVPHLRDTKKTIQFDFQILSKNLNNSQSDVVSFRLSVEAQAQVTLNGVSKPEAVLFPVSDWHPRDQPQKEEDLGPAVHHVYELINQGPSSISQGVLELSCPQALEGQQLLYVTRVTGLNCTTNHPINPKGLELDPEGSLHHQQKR
Chain of α5β1 integrin (P05556 21-798): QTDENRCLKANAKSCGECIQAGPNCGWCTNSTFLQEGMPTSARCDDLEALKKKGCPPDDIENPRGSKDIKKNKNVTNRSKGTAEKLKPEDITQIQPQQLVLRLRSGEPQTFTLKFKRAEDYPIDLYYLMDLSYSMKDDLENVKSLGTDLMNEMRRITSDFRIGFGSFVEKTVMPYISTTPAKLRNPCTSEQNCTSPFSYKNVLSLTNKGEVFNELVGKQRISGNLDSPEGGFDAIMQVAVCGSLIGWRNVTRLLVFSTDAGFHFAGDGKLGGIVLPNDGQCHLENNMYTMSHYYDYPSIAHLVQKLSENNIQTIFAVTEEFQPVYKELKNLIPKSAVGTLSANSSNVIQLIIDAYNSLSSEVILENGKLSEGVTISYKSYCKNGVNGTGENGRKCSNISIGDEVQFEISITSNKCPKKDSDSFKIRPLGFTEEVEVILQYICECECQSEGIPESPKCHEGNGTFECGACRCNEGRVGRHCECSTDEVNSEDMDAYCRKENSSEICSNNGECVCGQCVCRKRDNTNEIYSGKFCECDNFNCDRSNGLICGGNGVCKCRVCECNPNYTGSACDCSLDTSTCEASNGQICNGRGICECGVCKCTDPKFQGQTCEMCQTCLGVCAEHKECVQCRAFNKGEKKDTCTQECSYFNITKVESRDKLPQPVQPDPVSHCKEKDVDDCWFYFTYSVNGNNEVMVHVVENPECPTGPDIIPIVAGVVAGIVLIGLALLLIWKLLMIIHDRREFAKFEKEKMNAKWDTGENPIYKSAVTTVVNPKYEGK

| IC50 [nM] | SMILES |
| --- | --- |
| < 1000 | O=C(CNC(=O)c1cncc(NC2=NCCCN2)c1)NC[C@H](NC(=O)c1c(Cl)cc(-c2ccccc2)cc1Cl)C(=O)O [SU15210-00204-01, (S)-2-(3,5-dichlorobiphenyl-4-ylcarboxamido)-3-(2-(5-(1,4,5,6-tetrahydropyrimidin-2-ylamino)nicotinamido)acetamido)propanoic acid] |
| < 1000 | O=C(CNC(=O)c1c[nH]c(=O)c(NC2=NCCCN2)c1)NC[C@H](NC(=O)c1c(Cl)cc(-c2ccccc2)cc1Cl)C(=O)O [SU15210-00206-01, (S)-2-(3,5-dichlorobiphenyl-4-ylcarboxamido)-3-(2-(6-oxo-5-(1,4,5,6-tetrahydropyrimidin-2-ylamino)-1,6-dihydropyridine-3-carboxamido)acetamido)propanoic acid] |
